For one test, the system named is Leishmaniasis. The settings on record: clinical phase III trials, parenteral; cited from earlier work.
The subject of test [1] is epimastigotes of Trypanosoma cruzi strain Y. The test can be described thus: In vitro activity of miltefosine and benznidazole against epimastigotes. It counts as cell-based. The settings on record: 72 h. As for the experimental part: In vitro activity of Miltefosine and Benznidazole in the course of a combination treatment against Trypanosoma cruzi strain Y was assessed compared to the respective single treatments with miltefosine or benznidazole alone.
Miltefosine and Benznidazol were tested in vitro in combination against epimastigote forms of Trypanosoma cruzi strain Y which were isolated from a chagasic patient in Sao Paulo, Brazil and obtained from Dr. Victor Nussenzweig (Silva, L H. and Nussenzweig, V.; Folia clin. biol., 20: 191-207, 1953). This T. cruzi Y strain can also be ordered at ATCC 50832, while the ATCC strain must be re-adapted by several passages through mice in order to regain the strain's original characteristics of differentiation and virulence.
Epimastigotes were axenially cultured in brain heart infusion medium (BHI, Becton, Dickinson, Cat. No. 221812) supplemented with 10 mg of hemin per liter and 5% heat inactivated fetal calf serum (FCS) at 28° C. with shaking (˜80 rpm) up to a maximum of 10-12 passages, before the cultures were aged to obtain metacyclics that were purified on a DE-52 column (Whatman DEAE cellulose ion exchange column, Waco, Cat. No. 17050-03 or 17050-04) and injected into mice. After 2-4 weeks parasites were recovered from blood and placed back into axenic culture.
Stock solutions of Miltefosine and Benznidazol in concentrations of 10 mg/ml and 20 mg/ml dissolved in methanol were used. Stock solutions were serially diluted with a factor of 2 in BHI-FCS medium. For Benznidazol the following testing concentrations were used: 80 μg/ml, 40 μg/ml, 20 μg/ml, 10 μg/ml, 5 μg/ml and 2.5 μg/ml. The testing concentrations for Miltefosine were 20 μg/ml, 10 μg/ml, 5 μg/ml, 2.5 μg/ml, 1.25 μg/ml and 0.625 μg/ml.
2×10^6 epimastigotes were incubated in BHI-FCS medium with Miltefosine and Benznidazol in a final volume of 200 μl. After 72 h incubation at 28° C., parasite growth was determined by direct counting the number of parasites with a Neubauer chamber. The 50% inhibitory concentrations were determined by linear regression analysis.

The test system of test [2] is Trypanosoma cruzi (Tulahuan-LACZ amstigotes in PEM). Nature of the test: In vitro drug activity assay, protozoon A. It counts as cell-based. The settings on record: amastigotes in murine peritoneal macrophages, 3 days. Here is the method: In vitro activity of selected compounds of the invention against different protozoa was assessed as follows.
Murine (CD1) peritoneal macrophages were harvested 24 hours after starch induction and dispensed into 96-well plates at a concentration of 4×10^5 mL. After 24 hours, the cells were infected with Trypanosoma cruzi Tulahuan LAC-Z amastigotes (grown and cultured according to Buckner et al., Infection and Immunity 1999, 67(1): 403-409). 24 hours later, the infected cells were exposed to the test compounds (compounds of the invention as well as known prior art compounds) for 3 days and 50 μL of 500 μM CPRG-1% Nonidet P-40 was added to each well. The plates were read after 2 to 5 hours at 570 nm (Buckner et al., Antimicrobial Agents and Chemotherapy 1996, 40(11): 2592-2597). ED50 values were calculated with Msxlfit (IDBS).
The following protozoa were assessed: • A) Trypanosoma cruzi (Tulahuan-LACZ amstigotes in PEM, Lorente S O et al., Antimicrobial agents and chemotherapy 2004, 48(8): 2937-2950; Buckner et al., Infection and Immunity 1999, 67(1): 403-409; Buckner et al., Antimicrobial Agents and Chemotherapy 1996, 40(11): 2592-2597) • B) Trypanosoma brucei rhodesiense (strain STIB900, Lorente S O et al., Antimicrobial agents and chemotherapy 2004, 48(8): 2937-2950; Habtemariam S, BMC Pharmacology 2003, 3:6) • C) Plasmodium falciparum (strain K1, Korsinczky M et al., Antimicrobial agents and chemotherapy 2000, 44(8): 2100-2108; Thaitong S and Beale G H, Trans. R. Soc. Trop. Med. Hyg. 1981, 75: 271-273; Trager W and Jensen J B, Science 1976, 193: 673-675) • D) Plasmodium faiciparum (strain 3D7, Mu et al., PLoS Biology 2005, 3(10): e335)

The test system of test [3] is RKOp21 (human colon adenocarcinoma) cells. Nature of the test: XTT cytotoxicity assay, RKOp21 cells. Type of test: cell-based. The settings on record: Homo sapiens; 31.6 μM, second set of experiments; read-out: RKOp21 % INH [31.6 μM]. The method in brief: (§1)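 Cells recovered 24 h after plating, then exposed to compounds for 48 h at 37 °C; one set used 10 semi-log concentrations from 100 μM, another 31.6 μM final for PC3 and RKOp21. XTT-PMS added for 3 h, formazan absorbance at 490 nm versus untreated cells; IC50 from inhibition curves.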
For orientation: Tetrazolium assays rely on reduction of a dye to a coloured formazan, in cell work by metabolically active cells.

The test system of test [4] is PC3, RKOp21 and SKOV-3 cell lines. Nature of the test: XTT cytotoxicity assay, mean over all three cell lines. The settings on record: mean value over all three cell lines. Type of test: cell-based, human. Here is the method:
Following 2 days of continuous drug exposure 50 μl of freshly prepared XTT-PMS solution {2% 0.386 mg/ml PMS (N-Methyl Dibenzopyrazine Methylsulphate; Sigma, Cat. No. […] Serva, Cat. No. 38450) in RPMI 1640 medium without phenol red} was added to the wells. To measure the proportion of living cells, the cells were incubated for 3 h with XTT-PMS reagent at 37° C., 5% CO2, humidified atmosphere allowing to form the formazan salt. […] Inhibition curves were generated and IC50 values calculated by using GraphPad Prism. In the following table 7 cytotoxicity results (% inhibition of cell growth) obtained in the second set of experiments for selected compounds of the invention are presented in comparison to examples of the prior art (perifosine, miltefosine). The results presented are individual values for the respective cell line as well as the mean value over all three cell lines tested.

Test [5] has as its system PC3 (human prostate carcinoma) cells. Nature of the test: XTT cytotoxicity assay, PC3 cells. Type of test: cell-based. The settings on record: Homo sapiens, PC-3; 31.6 μM, second set of experiments; read-out: PC3 % INH [31.6 μM]. In a few lines:
as §1

In test [6] the test system is Streptococcus pneumoniae DSM 20566 (ATCC 33400). Nature of the test: Anti-bacterial bouillon microdilution assay (MIC), bacterium A. Type of test: cell-based. The settings on record: Streptococcus pneumoniae DSM 20566, 24 h. As for the experimental part: (§2) Selected compounds of the invention were tested in a bouillon microdilution assay method according to the DIN 58940 (www.din.de) guidelines for determination of susceptibility of bacterial strains with regard to cell growth inhibition. The assay method quantifies bacterial cell growth which corresponds to the turbidity of the liquid culture medium by photometric measurement carried out at 595 nm.
(§3) The method of MIC determination was performed according to DIN 58940-5. The volumina were adapted according to the microdilution method as described in DIN 58940-7 guideline.
(§4) Dependent on water solubility, compounds of the invention were dissolved either in water or ethanol in a concentration of 10 mg/ml. Subsequently, the stock was further diluted in water to a concentration of 512 μg/ml. The following serial dilutions (factor 2) were performed in water resulting in the following […] testing concentrations: 256 μg/ml, 128 μg/ml, 64 μg/ml, 32 μg/ml, 16 μg/ml, 8 μg/ml, 4 μg/ml, 2 μg/ml, 1 μg/ml, 0.5 μg/ml, 0.25 μg/ml and 0.125 μg/ml. Diluted compounds of the invention were transferred in 100 μl volume to the microtiter plate wells.
(§5) Pre-cultures of bacteria were grown in appropriate liquid media (refer to ATCC webpage, www.atcc.org) and afterwards were inoculated in corresponding liquid medium. 100 μl of the inoculums [adjusted to an amount of app. 1×10^6 microorganisms per ml (range of 10^5-10^8 microorganisms per ml)] were added to each of the testing compound concentrations and cultivated under the appropriate conditions.
(§6) Before and after incubation, bacterial growth was determined by photometric analysis against a positive control containing growing bacteria without compound and a sterile/negative control containing only the medium.
(Broth dilution looks for growth in wells or tubes with falling amounts of substance.)

Test [7] concerns SKOV-3 (human ovary adenocarcinoma) cells. The test can be described thus: XTT cytotoxicity assay, SKOV-3 cells. The settings on record: Homo sapiens, SK-OV-3, second set of experiments, read-out: SKOV-3 % INH [100 μM]. Type of test: cell-based. As for the experimental part: On the first day of the experiment cells were harvested from exponential phase cultures by trypsination, counted and plated into 96 well flat-bottom micro titer plates depending on the cell line as listed below: [table] After a 24 h recovery to allow the cells to resume exponential growth, the test compounds were diluted immediately prior to use and transferred in 25 μl volume to the wells. Following 2 days of continuous drug exposure 50 μl of freshly prepared XTT-PMS solution {2% 0.386 mg/ml PMS (N-Methyl Dibenzopyrazine Methylsulphate; Sigma, Cat. No. […] Serva, Cat. No. 38450) in RPMI 1640 medium without phenol red} was added to the wells. To measure the proportion of living cells, the cells were incubated for 3 h with XTT-PMS reagent at 37° C., 5% CO2, humidified atmosphere allowing to form the formazan salt. […] Inhibition curves were generated and IC50 values calculated by using GraphPad Prism.

Test [8] concerns Streptococcus pneumoniae DSM 11967 (ATCC 49619). Nature of the test: Anti-bacterial bouillon microdilution assay (MIC), bacterium B. It counts as cell-based. The settings on record: Streptococcus pneumoniae DSM 11967, 24 h. Here is the method: as §2, §3, §4, §5, §6
Test [9] deals with Moraxella catarrhalis DMS 11994 (ATCC 43617). Nature of the test: Anti-bacterial bouillon microdilution assay (MIC), bacterium D. It counts as cell-based. The settings on record: ATCC43617, 24 h. The method in brief:
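Broth microdilution MIC per DIN 58940-5/-7. Twofold compound dilutions in water spanned 256 to 0.125 μg/ml in the test concentration series, with inocula of about 1×10^6 organisms/ml in strain-appropriate media. Growth was read as turbidity at 595 nm before and after incubation, against growth and sterile controls.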

In test [10] the test system is Enterococcus faecium DSM 20477 (ATCC 19434). Nature of the test: Anti-bacterial bouillon microdilution assay (MIC), bacterium C. It counts as cell-based. The settings on record: Enterococcus faecium DSM 20477, 24 h. As for the experimental part: as §2, §3
Dependent on water solubility, compounds of the invention were dissolved either in water or ethanol in a concentration of 10 mg/ml. Subsequently, the stock was further diluted in water to a concentration of 512 μg/ml. The following serial dilutions (factor 2) were performed in water resulting in the following […] testing concentrations: 256 μg/ml, 128 μg/ml, 64 μg/ml, 32 μg/ml, 16 μg/ml, 8 μg/ml, 4 μg/ml, 2 μg/ml, 1 μg/ml, 0.5 μg/ml, 0.25 μg/ml and 0.125 μg/ml. Diluted compounds of the invention were transferred in 100 μl volume to the microtiter plate wells. […]
as §6

The subject of test [11] is Bacteroides fragilis DSM 2151 (ATCC 25285). The test can be described thus: Anti-bacterial bouillon microdilution assay (MIC), bacterium E. It counts as cell-based. The settings on record: anaerob, 24 h. As for the experimental part: as §2, §3, §4, §5, §6

Values after ≈ are worked out from the molar mass of the structure shown.

Take `NC[C@@H]1O[C@H](O[C@H]2[C@@H](O)[C@H](O[C@@H]3[C@@H](O)[C@H](N)C[C@H](N)[C@H]3O[C@H]3O[C@H](CO)[C@@H](O)[C@H](O)[C@H]3N)O[C@@H]2CO)[C@H](N)[C@@H](O)[C@@H]1O` [paromomycin, O-2-amino-2-deoxy-alpha-D-glucopyranosyl-(1-4)-O-[O-2,6-diamino-2,6-dideoxy-beta-L-idopyranosyl-(1-3)-beta-D-ribofuranosyl-(1-5)]-2-deoxy-D-streptamine]: in the test on Leishmaniasis, the “efficient in % of the cases” value is listed as 95%.

In the case of `O=C(Cn1ccnc1[N+](=O)[O-])NCc1ccccc1` [benznidazole, N-Benzyl-2-nitroimidazol-1-yl-acetamide], the “Epimastigotes [amount/mL]” value in test [1] (benznidazole 5 ug/mL) was found to be 455.833 amount/mL; in test [1] (benznidazole 10 ug/mL), 358.333 amount/mL; in test [1] (benznidazole 40 ug/mL), 190.000 amount/mL. For the same compound, in [2], the “ED50 (μg/mL), protozoon A” value turned out to be 0.22 µg/mL (≈ 0.845 µM).

As to `CCCCCCCCCCCCCCCCOP(=O)([O-])OCC[N+]1(C)CCCCCC1` [Compound 89, Phosphoric acid hexadecyl ester 2-(1-methyl-azepan-1-yl)-ethyl ester], the inhibition at 31.6 µM turned out to be 11.3% in test [3] and 50.6% in [5]. Besides, the “Mean % INH” value in [4] was 29.3%. The MIC in [6] amounted to 8 µg/mL (≈ 17.3 µM); in [8], 4 µg/mL (≈ 8.66 µM); in test [9] it was 4 µg/mL (≈ 8.66 µM). The inhibition at 100 µM in test [7] was 26.1%.

Consider `CCCCCCCCCCCCCCCCOP(=O)([O-])OCC[N+](C)(C)c1ccccc1` [Compound 107, Phosphoric acid hexadecyl ester 2-(N-phenyl-N,N-dimethyl-amino)-ethyl ester], for which the MIC is 8 µg/mL (≈ 17 µM) in test [10]; 8 µg/mL (≈ 17 µM) in test [6]; 4 µg/mL (≈ 8.52 µM) in [8]; 64 µg/mL (≈ 136 µM) in test [11]; 4 µg/mL (≈ 8.52 µM) in test [9].

In general, MIC refers to the least concentration at which growth counts as inhibited.

The values above are taken from US20070167408A1, “NOVEL ALKYL PHOSPHOLIPID DERIVATIVES WITH REDUCED CYTOTOXICITY AND USES THEREOF” (ZENTARIS GmbH, priority 2005, published 2007).
